# According to patent publication US10689354B2, “Aminoazole derivative” (Teijin Pharma Limited, priority 2015, dated 2020):
# Target: T1, androgen receptor (AR-LBD) (Rattus norvegicus, UniProt P15207)
# T1 construct: 5 μL of 2×AR-LBD/Fluoromone AL Red Complex contained in the kit; purchased Invitrogen
# T1 sequence (P15207 651-882 limits assumed): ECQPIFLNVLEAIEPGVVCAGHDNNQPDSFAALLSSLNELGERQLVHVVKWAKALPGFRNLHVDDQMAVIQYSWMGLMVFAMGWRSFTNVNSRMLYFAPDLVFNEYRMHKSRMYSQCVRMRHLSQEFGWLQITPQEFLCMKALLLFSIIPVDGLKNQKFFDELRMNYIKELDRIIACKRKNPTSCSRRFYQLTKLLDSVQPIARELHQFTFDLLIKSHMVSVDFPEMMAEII
# Assay: Evaluation of androgen receptor affinity (PolarScreen Androgen Receptor Competitor Assay Kit, Red; fluorescence polarization)
# Conditions: 22° C. for 5 hours, relative to binding rate of 1 μM DHT, read-out: AR affinity (pEC50) (converted)
# Summary of the method: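 Duplicate wells; compound plus AR-LBD tracer complex incubated 22° C for 5 h, then FP measured. Effect compared with 1 μM DHT; 50%-effect concentration expressed as pEC50.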
row,Compound,EC50 [nM]
1,"Cc1cc(F)cc(CN(c2ccc(C#N)cc2)c2nc(C(=O)NS(C)(=O)=O)c(C)s2)c1 [Compound 98, 2-[4-cyano-N-[(3-fluoro-5-methyl-phenyl)methyl]anilino]-5-methyl-N-methylsulfonyl-thiazole-4-carboxamide]",39.8
2,"Cc1sc(N(CCc2coc3ccccc23)Cc2ccccc2)nc1C(=O)NS(C)(=O)=O [Compound 707, 2-[2-(benzofuran-3-yl)ethyl-benzyl-amino]-5-methyl-N-methylsulfonyl-thiazole-4-carboxamide]",> 2000
3,"Cc1sc(N(Cc2ccccn2)c2ccc(C#N)cc2)nc1C(=O)NS(C)(=O)=O [Compound 42, 2-[4-cyano-N-(2-pyridylmethyl)anilino]-5-methyl-N-methylsulfonyl-thiazole-4-carboxamide]",> 2000
4,"COc1cccc(N(Cc2ccccc2)c2nc(C(=O)NS(C)(=O)=O)c(C)s2)c1 [Example 204, 2-(N-benzyl-3-methoxy-anilino)-5-methyl-N-methylsulfonyl-thiazole-4-carboxamide]",> 2000
5,"Cc1sc(N(Cc2ccc(OCCCN3CCCC3=O)cc2)c2ccc(C#N)cc2)nc1C(=O)NS(C)(=O)=O [Compound 578, 2-[4-cyano-N-[[4-[3-(2-oxopyrrolidin-1-yl)propoxy]phenyl]methyl]anilino]-5-methyl-N-methylsulfonyl-thiazole-4-carboxamide]",794
6,"Cc1sc(N(Cc2ccccc2)c2cccnn2)nc1C(=O)NS(C)(=O)=O [Example 238, 2-[benzyl(pyridazin-3-yl)amino]-5-methyl-N-methylsulfonyl-thiazole-4-carboxamide]",> 2000
7,"Cc1sc(N(Cc2ccccc2)c2ccc3c(ccn3C)c2)nc1C(=O)NS(C)(=O)=O [Compound 338, 2-[benzyl-(1-methylindole-5-yl]amino]-5-methyl-N-methylsulfonyl-thiazole-4-carboxamide]",> 2000

# Next, values leading:
row,EC50 [nM],Compound
1,> 2000,"Cc1sc(N(Cc2ccncc2)c2ccc(C#N)cc2)nc1C(=O)NS(C)(=O)=O [Compound 44, 2-[4-cyano-N-(4-pyridylmethyl)anilino]-5-methyl-N-methylsulfonyl-thiazole-4-carboxamide]"
2,> 2000,"Cc1sc(N(Cc2ccccc2)c2ccccc2C#N)nc1C(=O)NS(C)(=O)=O [Example 233, 2-(N-benzyl-2-cyano-anilino)-5-methyl-N-methylsulfonyl-thiazole-4-carboxamide]"
3,> 2000,"Cc1ncsc1CCN(c1ccc(C#N)cc1)c1nc(C(=O)NS(C)(=O)=O)c(C)s1 [Compound 136, 2-[4-cyano-N-[2-(4-methylthiazol-5-yl)ethyl]anilino]-5-methyl-N-methylsulfonyl-thiazole-4-carboxamide]"
4,794,"Cc1sc(N(Cc2ccccc2)c2ccc(C#N)cc2)nc1C(=O)NS(=O)(=O)c1cccnc1 [Compound 381, 2-(N-benzyl-4-cyano-anilino)-5-methyl-N-(3-pyridylsulfonyl)thiazole-4-carboxamide]"
5,> 2000,"Cc1sc(N(Cc2ccccc2)c2ccc(OCCO)cc2)nc1C(=O)NS(C)(=O)=O [Example 211, 2-[N-benzyl-4-(2-hydroxyethoxy)anilino]-5-methyl-N-methylsulfonyl-thiazole-4-carboxamide]"
6,> 2000,"Cc1sc(N(CCc2cccnc2)c2ccc(C#N)cc2)nc1C(=O)NS(C)(=O)=O [Compound 134, 2-[4-cyano-N-[2-(3-pyridyl)ethyl]anilino]-5-methyl-N-methylsulfonyl-thiazole-4-carboxamide]"
7,> 2000,"Cc1sc(N(Cc2ccccc2)c2cccnc2)nc1C(=O)NS(C)(=O)=O [Compound 49, 2-[benzyl(3-pyridyl)amino]-5-methyl-N-methylsulfonyl-thiazole-4-carboxamide]"
8,398,"Cc1sc(N(CCC2CCOCC2)Cc2ccccc2)nc1C(=O)NS(C)(=O)=O [Example 300, 2-[benzyl(2-tetrahydropyran-4-ylethyl)amino]-5-methyl-N-methylsulfonyl-thiazole-4-carboxamide]"
